{"source": "paper PMC5750218", "about": "“Protein-inspired antibiotics active against vancomycin- and daptomycin-resistant bacteria” (Nature Communications, 2018)", "test_in_all_cases": "microbe, parasite or virus in culture", "key": {"[1]": {"system": "Multi-drug-resistant S. pneumoniae ATCC 700677", "details": "ATCC 700677", "outline": "(§1)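 Reported values are MICs read as the lowest concentration showing no visible growth after 24 h at 37 °C. Compounds were tested by twofold broth microdilution in Mueller Hinton broth over 8 to 0.003 µg mL^−1.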"}, "[2]": {"system": "Vancomycin-intermediate S. aureus NRS1", "details": "Vancomycin-intermediate NRS1", "outline": "as §1"}, "[3]": {"system": "Vancomycin-resistant (VanA) Enterococcus faecium ATCC 51559", "details": "ATCC 51559", "outline": "as §1"}, "[4]": {"system": "Vancomycin-resistant S. aureus NARSA VRS4", "format": "cell-based, Staphylococcus aureus", "details": "Vancomycin-resistant NARSA VRS4"}, "[5]": {"system": "Methicillin-resistant S. aureus ATCC 43300", "details": "ATCC 43300, 24 h", "outline": "as §1"}}}
{"compound": "CCCCCCCCCC(=O)N[C@@H](CCCCN)C(=O)N[C@@H](CCCCN)C(=O)N[C@@H](CCCCN)C(=O)N[C@@H](CCCCNC(=O)[C@H]1NC(=O)[C@H]2NC(=O)[C@H](NC(=O)[C@@H]3NC(=O)[C@H](CC(N)=O)NC(=O)[C@H](NC(=O)[C@@H](CC(C)C)NC)[C@H](O)c4ccc(c(Cl)c4)Oc4cc3cc(c4O[C@@H]3O[C@H](CO)[C@@H](O)[C@H](O)[C@H]3O[C@H]3C[C@](C)(N)[C@H](O)[C@H](C)O3)Oc3ccc(cc3Cl)[C@H]2O)c2ccc(O)c(c2)-c2c(O)cc(O)cc21)C(=O)O", "note": "[Compound 36, nC9CO-KKK-K(Vancomycin)-OH]", "values": [{"measurement": "MIC MDR S.P.", "setting": "[1]", "result": 0.06, "unit": "µg/mL"}, {"measurement": "MIC VISA", "setting": "[2]", "result": 0.75, "unit": "µg/mL"}, {"measurement": "MIC VRE", "setting": "[3]", "result": 8, "unit": "µg/mL"}, {"measurement": "MIC VRSA", "setting": "[4]", "result": 0.75, "unit": "µg/mL"}, {"measurement": "MIC MRSA", "setting": "[5]", "result": 0.06, "unit": "µg/mL"}]}
{"compound": "CCCCCCCCCCCC(=O)N[C@@H](CCCCN)C(=O)N[C@@H](CCCCN)C(=O)N[C@@H](CCCCN)C(=O)N[C@@H](CCCCNC(=O)[C@H]1NC(=O)[C@H]2NC(=O)[C@H](NC(=O)[C@@H]3NC(=O)[C@H](CC(N)=O)NC(=O)[C@H](NC(=O)[C@@H](CC(C)C)NC)[C@H](O)c4ccc(c(Cl)c4)Oc4cc3cc(c4O[C@@H]3O[C@H](CO)[C@@H](O)[C@H](O)[C@H]3O[C@H]3C[C@](C)(N)[C@H](O)[C@H](C)O3)Oc3ccc(cc3Cl)[C@H]2O)c2ccc(O)c(c2)-c2c(O)cc(O)cc21)C(=O)O", "note": "[Compound 37, nC11CO-KKK-K(Vancomycin)-OH]", "values": [{"measurement": "MIC MDR S.P.", "setting": "[1]", "result": "<0.003", "unit": "µg/mL"}, {"measurement": "MIC VISA", "setting": "[2]", "result": 0.06, "unit": "µg/mL"}, {"measurement": "MIC VRE", "setting": "[3]", "result": 0.5, "unit": "µg/mL"}, {"measurement": "MIC VRSA", "setting": "[4]", "result": 0.75, "unit": "µg/mL"}, {"measurement": "MIC MRSA", "setting": "[5]", "result": 0.005, "unit": "µg/mL"}]}
